Data reported in patent US20100273189A1, “NON SEPARATION ASSAYS WITH SELECTIVE SIGNAL INHIBITORS” (BECKMAN COULTER, INC., priority 2009, published 2010).
Read-outs that look alike come from different tables or passages of the source.

Columns and labels:
PSA = assay: Screening SSIA by homogeneous PSA immunoassay; type: biochemical
Description: This example presents one method used for testing of candidate compounds for functionality as SSIA in assays of the present disclosure. Testing was conducted in a model screening immunoassay of the protein PSA. Mouse anti-PSA tests were run using a 96-well microtiter plate format. […] The plate was incubated at 37° C. for 10 minutes. A 5 μL aliquot of the test compound (various concentrations) was added to each well. Chemiluminescence was triggered by the addition of 100 μL of a solution of trigger solution A. The chemiluminescent flash was integrated for 5 seconds after the addition of the trigger solution using a Luminoskan Asent® plate luminometer, (Thermo Fischer Scientific, Inc., Waltham, Mass.).
It is desirable that the improvement factor be at least 2 (S5/S0≧ about 20-30) and more desirable that improvement factor be at least 5 (S5/S0≧ about 50), yet more desirable that S5/S0 be ≧100 in the present screen.

biotinylated HRP = molecular target: T1, biotinylated HRP (Armoracia rusticana, UniProt P00433); assay: Model system for selection of SSIA (M280 btn-BSA-AK1-streptavidin particles + Btn-HRP:HRP); type: biochemical; conditions: for S/S0: Btn-HRP 0 ng/mL vs 0; for B-HRP0 light intensity: Btn-HRP 0 ng/mL; for B-HRP0 light intensity / B-HRP1 light intensity / B-HRP10 light intensity / B-HRP100 light intensity / B-HRP250 light intensity: total HRP 500 ng/mL, SSIA final 100 μM; for S1/S0: Btn-HRP 1 ng/mL vs 0; for B-HRP1 light intensity: Btn-HRP 1 ng/mL; for S2/S0: Btn-HRP 10 ng/mL vs 0; for B-HRP10 light intensity: Btn-HRP 10 ng/mL; for S3/S0: Btn-HRP 100 ng/mL vs 0; for B-HRP100 light intensity: Btn-HRP 100 ng/mL; for S4/S0: Btn-HRP 250 ng/mL vs 0; for B-HRP250 light intensity: Btn-HRP 250 ng/mL
T1 construct: purchased Roche Diagnostics, Indianapolis, Ind., USA
T1 sequence (P00433 31-338 limits assumed): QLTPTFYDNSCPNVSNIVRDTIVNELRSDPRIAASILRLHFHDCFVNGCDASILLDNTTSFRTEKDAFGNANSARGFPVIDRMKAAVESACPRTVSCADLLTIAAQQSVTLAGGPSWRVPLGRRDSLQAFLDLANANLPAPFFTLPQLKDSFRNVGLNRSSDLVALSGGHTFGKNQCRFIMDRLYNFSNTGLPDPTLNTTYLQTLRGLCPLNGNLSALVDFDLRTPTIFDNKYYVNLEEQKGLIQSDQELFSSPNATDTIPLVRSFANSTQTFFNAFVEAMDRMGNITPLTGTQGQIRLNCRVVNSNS
Description: The model system uses a microparticle conjugated to BSA (bovine serum albumin) labeled with a […] and acridan ketenedithioacetal chemiluminescent label (AK1) as the chemiluminescent-labeled sbp, and biotinylated HRP as the activator-labeled specific binding pair. In the model system, varying amounts of Btn-HRP is added to the chemiluminescent-labeled specific binding pair at 0, 1, 10, 100 and 250 ng/mL. Additional unlabeled HRP is added to reach a total HRP of concentration of 500 ng/mL in each reaction mixture. The unlabeled HRP in combination with the activator-labeled sbp was provided to the chemiluminescent-labeled sbp microparticles to emulate sample. A compound for assessment as an SSIA was also added. This reaction mixture of the model system is then triggered by addition of trigger solution in a manner of assays of the present disclosure.
To prepare the chemiluminescent-labeled sbp on microparticles, Bovine Serum Albumin (BSA) was biotinylated with 4× molar excess of biotin-LC-sulfoNHS (Pierce Biotechnology Inc., Rockford, Ill., USA). Unbound reactants were removed via desalting or dialysis. The biotin-BSA was then reacted with a 5× molar excess of acridan ketenedithioacetal AK1 in 20 mM sodium phosphate pH 7.2: DMSO 75:25, v/v) followed by desalting in the same buffer. The dual labeled (biotin and AK1) BSA was then coupled with tosyl activated M-280 microparticles (Invitrogen Corporation, Carlsbad, Calif., USA) in a 0.1 M borate buffer pH 9.5 at a concentration of ca. 20 μg labeled BSA per mg of microparticles for 16-24 h at 40° C. After coupling the microparticles were stripped for 1 h at 40° C. with 0.2 M TRIS base, 2% SDS, pH ˜11. The stripping process was repeated one additional time. Microparticles were then suspended in a 0.1% BSA/TRIS buffered saline (BSA/TBS) buffer and streptavidin (SA) was added at approximately 15 μg SA per mg microparticles. Streptavidin was mixed with the microparticles for 45-50 min at room temperature. The microparticles were then washed three times and suspended in the same BSA/TBS.
HRP, (Roche Diagnostics, Indianapolis, Ind., USA) was biotinylated with 4× molar excess of biotin-LC-sulfoNHS (Pierce Biotechnology Inc., Rockford, Ill., USA). Unbound reactants were removed via desalting or dialysis.
Each SSIA compound for assessment was dissolved in Buffer II at a concentration at least 10× of final concentration of the reaction mixture (after the addition of the trigger solution)
Paramagnetic particles (PMP): (M280)-(btn-BSA-AK)-(Streptavidin);
Sample Emulator: B-HRP:HRP; 500 ng/mL total with titration of B-HRP:HRP at Total HRP concentration of 500 ng/mL, with Btn-HRP variations: 0, 1, 10, 100 and 250 ng/mL.
SSIA: According to tables below in BUFFER II targeted to give a final concentration of 100 μM.
Trigger solution A is defined above.
5 μl of 1 mg/ml of dual-labeled (biotin and AK1) BSA M280 particles were mixed with 45 μl of working concentration SSIA in Buffer II. The assay volume brought to […] by adding 15 μl of Buffer II. 15 μl of sample containing Btn-HRP:HRP at different ratios (The amount of biotinylated-HRP varied from 0, 1, 10, 100 and 250 ng/mL) was added. The reaction mixture was incubated for 30 min at 37° C., then 100 μL of trigger solution was added and the light intensity recorded. Total volume of reaction mixture, including trigger solution was […] with a final concentration of 100 μM of SSIA.

[1] = PSA 129 ng/mL (S5) vs zero, test compound final conc. 0.122 mM
[2] = PSA 129 ng/mL (S5) vs zero, test compound final conc. 0.244 mM
[3] = PSA 129 ng/mL (S5) vs zero, test compound final conc. 0.061 mM
[4] = PSA 129 ng/mL (S5) vs zero, test compound final conc. 122 uM

SMILES: Cc1cc(CO)c(O)c(CO)c1
- S5/S0 (PSA; [1]): 23

SMILES: COc1cc(C(C)(C)C)c(O)c(C(C)(C)C)c1
- S5/S0 (PSA; [1]): 19

SMILES: Cc1ccc(O)c(O)c1
- S5/S0 (PSA; [1]): 142

SMILES: O=C(O)c1ccc(O)c(O)c1
- S5/S0 (PSA; [1]): 178

SMILES: Oc1cccc(O)c1O
- S5/S0 (PSA; [1]): 69

SMILES: O=C(O)c1cc(O)c(O)c(O)c1
- S5/S0 (PSA; [1]): 135

SMILES: COc1ccccc1O
- S5/S0 (PSA; [1]): 13

SMILES: Oc1ccc([C@@H]2Oc3cc(O)c(O)cc3C[C@@H]2O)cc1O
- S5/S0 (PSA; [1]): 323

SMILES: O=c1cc(O)c2ccccc2o1
- S5/S0 (PSA; [1]): 17

SMILES: O=c1ccc2cc(O)c(O)cc2o1
- S5/S0 (PSA; [1]): 105

SMILES: O=c1c(O)c(-c2ccccc2)oc2ccccc12
- S5/S0 (PSA; [1]): 13

SMILES: O=c1c(O)c(-c2ccccc2)oc2cc(O)ccc12
- S5/S0 (PSA; [1]): 14

SMILES: O=c1c(O)c(-c2ccccc2)oc2ccc(O)cc12
- S5/S0 (PSA; [1]): 9

SMILES: Nc1c(O)cc(S(=O)(=O)O)c2ccccc12
- S5/S0 (PSA; [1]): 65

SMILES: Oc1c(F)c(F)c(O)c(F)c1F
- S5/S0 (PSA; PSA 129 ng/mL (S5) vs zero, test compound final conc. 0.014 mM): 50

SMILES: Nc1cc(Cl)ccc1O
- S5/S0 (PSA; [2]): 205

SMILES: Nc1ccc(O)cc1O
- S5/S0 (PSA; PSA 129 ng/mL (S5) vs zero, test compound final conc. 0.030 mM): 161

SMILES: O=C(O)c1cc(O)c2ccccc2n1
- S5/S0 (PSA; [1]): 6

SMILES: c1ccc2c(c1)Cc1ccccc1O2
- S5/S0 (PSA; [1]): 4

SMILES: O=c1c2ccccc2[nH]c2ccccc12
- S5/S0 (PSA; [1]): 14

SMILES: O=S(=O)([O-])CCCN1c2ccccc2Sc2ccccc21.[Na+]
- S5/S0 (PSA; [2]): 50

SMILES: O=C1C(O)=C(O)C(=O)C(O)=C1O
- S5/S0 (PSA; [3]): 51

SMILES: O=C1C(O)=C(Cl)C(=O)C(O)=C1Cl
- S5/S0 (PSA; PSA 129 ng/mL (S5) vs zero, test compound final conc. 0.031 mM): 7

SMILES: Nc1ccccc1B(O)O
- S5/S0 (PSA; [1]): 108

SMILES: C=CCc1ccc(O)c(OC)c1
- S5/S0 (PSA; [2]): 30

SMILES: O=S(=O)([O-])CCCOCCCN1c2ccccc2Cc2ccccc21.[Na+]
- S5/S0 (PSA; [2]): 6

SMILES: Nc1c(O)ccc2ccccc12
- S5/S0 (PSA; [1]): 63

SMILES: O=C(O)/C=C/c1ccc(O)c(O)c1
- S5/S0 (PSA; [1]): 116

SMILES: NCCNC(=O)c1ccc(NN)cc1
- S5/S0 (PSA; PSA 129 ng/mL (S5) vs zero, test compound final conc. 1.22 mM): 138

SMILES: CC1(C)OC(=O)C(O)=C1O
- S5/S0 (PSA; [1]): 467

SMILES: CC1=C(O)C(=O)C(C)O1 (stereo not drawn)
- S5/S0 (PSA; PSA 129 ng/mL (S5) vs zero, test compound final conc. 1.25 mM): 237

SMILES: Nc1ncccc1O
- S5/S0 (PSA; [1]): 32

SMILES: COc1ccccc1N
- S5/S0 (PSA; [1]): 7

SMILES: c1ccc2c(c1)Nc1ccccc1O2
- S5/S0 (PSA; [1]): 605

SMILES: c1ccc2c(c1)Cc1ccccc1N2
- S5/S0 (PSA): 120

SMILES: COC1=C(O)C(=O)O[C@@H]1[C@@H](O)CO
- S5/S0 (PSA; [4]): 16

SMILES: O=C1O[C@H]([C@@H](O)CO)C(=O)C1=O
- S5/S0 (PSA; [1]): 26

SMILES: COc1cc(O)ccc1O
- S5/S0 (PSA; PSA 129 ng/mL (S5) vs zero, test compound final conc. 0.111 mM): 161

SMILES: Nc1cccc(Cl)c1O
- S5/S0 (PSA; [2]): 300

SMILES: Oc1cccnc1O
- S5/S0 (PSA; [1]): 41

SMILES: O=C(O)/C(O)=C(/O)C(=O)O
- S5/S0 (PSA; [1]): 30

SMILES: O=C(O)c1cccc(O)c1O
- S5/S0 (PSA; [1]): 22

SMILES: c1ccc2c(c1)Cc1ccccc1S2
- S5/S0 (PSA; [1]): 9

SMILES: O=C(O)C1c2ccccc2Oc2ccccc21
- S5/S0 (PSA; [1]): 7

SMILES: O=C(c1ccccc1)C1c2ccccc2Nc2ccccc21
- S5/S0 (PSA; [1]): 9

SMILES: O=S(=O)([O-])CCCN1c2ccccc2Cc2ccccc21.[Na+]
- S5/S0 (PSA; [2]): 15

SMILES: NNC(=O)c1ccccc1O
- S5/S0 (PSA; [3]): 23

SMILES: O=C1C=C(O)C(=O)C=C1O
- S5/S0 (PSA; [2]): 14

SMILES: OB(O)c1cc(Cl)ccc1O
- S5/S0 (PSA; [2]): 22

SMILES: Nc1ccccc1S
- S5/S0 (PSA; [1]): 234

SMILES: Nc1cc2ccccc2cc1O
- S5/S0 (PSA; [2]): 67

SMILES: Nc1ccc2ccccc2c1O
- S5/S0 (PSA; [2]): 109

SMILES: Oc1ccc(O)c(Br)c1
- S5/S0 (PSA; [1]): 570

SMILES: Nc1cc(C[C@H](N)C(=O)O)ccc1O
- S5/S0 (PSA; [2]): 448

SMILES: C[C@H]1OC(=O)C(O)=C1O
- S5/S0 (PSA; [1]): 423

SMILES: O=C1O[C@H]([C@@H](O)CO)C([O-])=C1O.[Na+]
- S5/S0 (PSA; [4]): 9.2

SMILES: O=C1O[C@H]([C@H](O)CO)C(O)=C1O
- S5/S0 (PSA; [4]): 10.3

SMILES: Cc1c(C)c2c(c(C)c1O)CCC(C)(C(=O)O)O2 (stereo not drawn) [Trolox ®, Trolox]
- S/S0 (biotinylated HRP; SSIA 100 μM): 1
- B-HRP0 light intensity (biotinylated HRP): 173
- S1/S0 (biotinylated HRP; SSIA 100 μM): 8.4
- B-HRP1 light intensity (biotinylated HRP): 1,460
- S2/S0 (biotinylated HRP; SSIA 100 μM): 215.1
- B-HRP10 light intensity (biotinylated HRP): 37,291
- S3/S0 (biotinylated HRP; SSIA 100 μM): 41832.7
- B-HRP100 light intensity (biotinylated HRP): 7,251,008
- S4/S0 (biotinylated HRP; SSIA 100 μM): 62274.5
- B-HRP250 light intensity (biotinylated HRP): 10,794,247
- effect in the model system / utility as SSIA (biotinylated HRP; SSIA 100 μM, conclusion in words): demonstrating utility as SSIA

SMILES: O=c1[nH]c(=O)c2[nH]c(=O)[nH]c2[nH]1 [Uric Acid]
- S/S0 (biotinylated HRP; SSIA 100 μM): 1
- B-HRP0 light intensity (biotinylated HRP): 5,532
- S1/S0 (biotinylated HRP; SSIA 100 μM): 1.8
- B-HRP1 light intensity (biotinylated HRP): 9,760
- S2/S0 (biotinylated HRP; SSIA 100 μM): 185.3
- B-HRP10 light intensity (biotinylated HRP): 1,025,209
- S3/S0 (biotinylated HRP; SSIA 100 μM): 1574.9
- B-HRP100 light intensity (biotinylated HRP): 8,712,328
- S4/S0 (biotinylated HRP; SSIA 100 μM): 1935.8
- B-HRP250 light intensity (biotinylated HRP): 10,708,733
